Read-outs that look alike come from different tables or passages of the source. Where no end group is shown, it is not given here.
Experiments:
[1] = system: bacterial-induced middle ear inflammation; conditions: 10 μM peptide without bacteria, five mice, 3 days

Row | Sequence | effect on cell viability (cell viability; 10 μM) | effect of peptide alone on fluid area, cell number, tympanic membrane thickness vs PBS injected ear [1] | effect on cell viability (cell viability)
1 | DIVKLTVYDCIRRRRRRRRR [peptide P13] | no effect on cell viability | no differences | 
2 | ITCVDVDLIYKRRRRRRRRR [Scrambled peptide, reference compound] |  |  | no effect on cell viability

From US8445449B2, “Method and peptide for regulating cellular activity” (The United States of America, as represented by the …, priority 2004, dated 2013)
